The target in one assay is T1, TPα^S145A (Homo sapiens, UniProt P21731, S145A).
T1 construct: expressed in transfected cells
T1 sequence (P21731 1-343 S145A): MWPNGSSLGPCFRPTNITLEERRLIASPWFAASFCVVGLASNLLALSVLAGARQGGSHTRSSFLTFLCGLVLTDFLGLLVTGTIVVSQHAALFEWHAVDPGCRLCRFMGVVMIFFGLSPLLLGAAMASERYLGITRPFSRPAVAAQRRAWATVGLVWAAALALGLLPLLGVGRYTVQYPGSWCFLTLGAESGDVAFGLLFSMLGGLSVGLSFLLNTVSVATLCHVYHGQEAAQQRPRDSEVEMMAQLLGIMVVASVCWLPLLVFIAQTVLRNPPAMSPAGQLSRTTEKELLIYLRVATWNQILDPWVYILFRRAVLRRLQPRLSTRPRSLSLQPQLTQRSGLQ
Kind of assay: Intracellular calcium mobilization, HEK.TPα^S145A cells. The conditions noted are these: for Δ[Ca2+]i, U46619-induced: HEK.TPα^S145A. It counts as cell-based. The method, then: (§1) Measurement of intracellular calcium mobilization ([Ca^2+]i) in FURA2/AM preloaded HEK 293 cell lines (2 × 10^6 cells/dish), each transiently co-transfected with pADVA (10 μg), and pCMV:Gαq (25 μg), was carried out as previously described. To investigate the effect of GRK2/βARK1 on TP-mediated [Ca^2+]i mobilization, HEK.TPα or HEK.TPβ cells (2 × 10^6 cells/dish) were co-transfected with pADVA (10 μg), pCMV:Gαq (25 μg) along with pRK5:βARK1^495–689 (25 μg), encoding a dominant negative form of GRK2/βARK1[39]. Approximately 48 h post-transfection, cells were harvested by scraping, washed twice in ice-cold PBS and resuspended in HBSSHB (modified Ca^2+/Mg^2+-free Hank's buffered salt solution, containing 10 μM HEPES, pH 7.67, 0.1% bovine serum albumin (BSA)) buffer at 10^7 cells/ml and incubated in the dark with 5 μM FURA2/AM for 45 min at 37 °C. […] For each measurement of [Ca^2+]i mobilization, aliquots of cells were diluted to 0.825 × 10^6 cells/ml in HBSSHB, 1 mM CaCl2 and FURA2 fluorescence was recorded (2 ml aliquots of cells) at 37^ °C with gentle stirring with a Perkin Elmer-Cetus LS50-B spectrofluorometer at excitation wavelengths of 340 nm and 380 nm and emission wavelength of 510 nm, respectively.
Cells were stimulated with the TP agonist U46619 (1 μM) and changes in [Ca^2+]i mobilization were monitored as a function of time. To assess agonist-mediated homologous desensitization, cells (0.825 × 10^6 cells/ml; 2 ml per assay) were stimulated with 1 μM U46619 (Primary stimulation) or, as a control, with the vehicle for 4 min; thereafter, cells were collected by centrifugation (900×g, 5 min); were washed twice in 2 ml HBSSHB, 1 mM CaCl2; and finally resuspended in 2 ml HBSSHB,1 mM CaCl2 and were left to recover over various time intervals (ranging from 0 to 60 min); thereafter, cells re-stimulated with 1 μM U46619 (Secondary stimulation) and changes in [Ca^2+]i mobilization were monitored as a function of time. […]
A general note: Calcium assays in cells follow changes in intracellular calcium, usually with a dye or a luminescent sensor.

Another assay has as its target T2, TPα^S329A (Homo sapiens, UniProt P21731, S329A).
T2 construct: expressed in transfected cells
T2 sequence (P21731 1-343 S329A): T1 sequence (P21731 1-343 S145A) with A145S, S329A
In words: Intracellular calcium mobilization, HEK.TPα^S329A cells. The class given is cell-based. On the procedure:
as §1, with “GRK2/βARK1[39].” for “GRK2/βARK1[39]. Approximately 48 h post-transfection, cells were harvested by scraping, washed twice in ice-cold PBS and resuspended in HBSSHB (modified Ca^2+/Mg^2+-free Hank's buffered salt solution, containing 10 μM HEPES, pH 7.67, 0.1% bovine serum albumin (BSA)) buffer at 10^7 cells/ml and incubated in the dark with 5 μM FURA2/AM for 45 min at 37 °C.”
Cells were stimulated with the TP agonist U46619 (1 μM) and changes in [Ca^2+]i mobilization were monitored as a function of time. […]
The vehicle had no effect on U46619-mediated [Ca^2+]i mobilization. Calibration of the signal was performed in each sample by adding 0.2% Triton X-100 to obtain the maximal fluorescence ratio (Rmax) and then 1 mM EGTA to obtain the minimal fluorescence ratio (Rmin). […]

The mark [1] stands for this setting: secondary 1 μM U46619 at 15 min.

Molecules are shown by their SMILES. Positions count from the first letter of the chain named.

For `CCCCC[C@H](O)/C=C/[C@@H]1[C@@H](C/C=C\CCCC(=O)O)[C@H]2CO[C@@H]1C2` [U46619], the “Δ[Ca2+]i, U46619-induced” value was 157 ± 3.8 nM at TPα^S145A (primary 1 μM U46619 4 min), 37 ± 4.2 nM on TPα^S145A (setting [1]), 228 ± 7.7 nM at TPα^S329A (primary 1 μM U46619 4 min) and 0 nM on TPα^S329A (setting [1]). Further, the “secondary U46619 [Ca2+]i response relative to primary response” value on TPα^S145A (TPα^S145A) came to 24%.
